In PubChem BioAssay (NCI):
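Each compound was tested at five concentrations against cells in 96-well plates for 48 hours. GI50 = concentration required for 50% inhibition of growth. TGI: total growth inhibition.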

Experiments:
Assay in all cases: NCI-60 cell line screen, 48 h
[1] = tested on: 786-0 renal
[2] = tested on: A498 renal
[3] = tested on: A549 NSCLC
[4] = tested on: CAKI-1 renal
[5] = tested on: CCRF-CEM leukemia
[6] = tested on: COLO 205 colon
[7] = tested on: DU-145 prostate
[8] = tested on: HCC-2998 colon
[9] = tested on: HCT-116 colon
[10] = tested on: HCT-15 colon
[11] = tested on: HL-60(TB) leukemia
[12] = tested on: HOP-62 NSCLC
[13] = tested on: HOP-92 NSCLC
[14] = tested on: HS 578T breast
[15] = tested on: HT29 colon
[16] = tested on: IGROV1 ovarian
[17] = tested on: K-562 leukemia
[18] = tested on: KM12 colon
[19] = tested on: LOX IMVI melanoma
[20] = tested on: M14 melanoma
[21] = tested on: MALME-3M melanoma
[22] = tested on: MCF7 breast
[23] = tested on: MDA-MB-231 breast
[24] = tested on: MDA-MB-435
[25] = tested on: MDA-N
[26] = tested on: MOLT-4 leukemia
[27] = tested on: NCI-H226 lung
[28] = tested on: NCI-H23 lung
[29] = tested on: NCI-H460 lung
[30] = tested on: NCI-H522 lung
[31] = tested on: NCI/ADR-RES ovarian
[32] = tested on: OVCAR-4 ovarian
[33] = tested on: OVCAR-5 ovarian
[34] = tested on: OVCAR-8 ovarian
[35] = tested on: PC-3 prostate
[36] = tested on: RPMI-8226 leukemia
[37] = tested on: RXF 393 renal
[38] = tested on: SF-268 CNS
[39] = tested on: SF-295 CNS
[40] = tested on: SF-539 CNS
[41] = tested on: SK-MEL-2 melanoma
[42] = tested on: SK-MEL-28 melanoma
[43] = tested on: SK-OV-3 ovarian
[44] = tested on: SN12C renal
[45] = tested on: SNB-19 CNS
[46] = tested on: SNB-75 CNS
[47] = tested on: SR leukemia
[48] = tested on: SW-620 colon
[49] = tested on: T-47D breast
[50] = tested on: TK-10 renal
[51] = tested on: UACC-257 melanoma
[52] = tested on: UACC-62 melanoma
[53] = tested on: UO-31 renal
[54] = tested on: ACHN renal
[55] = tested on: OVCAR-3 ovarian
[56] = tested on: SK-MEL-5 melanoma
[57] = tested on: U251 CNS
[58] = tested on: BT-549 breast
[59] = tested on: EKVX NSCLC

CCN(CCCl)c1cc(CN(C)C)cc(NC(=O)c2ccc(C(=O)Nc3ccccc3)cc2)c1
TGI [1]: 0.581 µM | TGI [2]: 1.8 µM | TGI [3]: 11.9 µM | TGI [4]: 3.69 µM | TGI [5]: 1.14 µM | TGI [6]: 2.27 µM | TGI [7]: 6.92 µM | TGI [8]: 2.51 µM | TGI [9]: 11.5 µM | TGI [10]: 4.53 µM | TGI [11]: 0.695 µM | TGI [12]: 3.21 µM | TGI [13]: 3.87 µM | TGI [14]: 0.583 µM | TGI [15]: 0.414 µM | TGI [16]: 0.448 µM | TGI [17]: 8.31 µM | TGI [18]: 2.8 µM | TGI [19]: 0.634 µM | TGI [20]: 5.44 µM | TGI [21]: 0.425 µM | TGI [22]: 2.79 µM | TGI [23]: 7.55 µM | TGI [24]: 0.613 µM | TGI [25]: 0.925 µM | TGI [26]: 1.78 µM | TGI [27]: 5.92 µM | TGI [28]: 1.27 µM | TGI [29]: 1.27 µM | TGI [30]: 0.317 µM | TGI [31]: 11.4 µM | TGI [32]: 1.87 µM | TGI [33]: 4.5 µM | TGI [34]: 6.34 µM | TGI [35]: 1.56 µM | TGI [36]: 3.14 µM | TGI [37]: 0.307 µM | TGI [38]: 13.6 µM | TGI [39]: 12.4 µM | TGI [40]: 2.26 µM | TGI [41]: 0.519 µM | TGI [42]: 4.36 µM | TGI [43]: 11.1 µM | TGI [44]: 5.21 µM | TGI [45]: 8.85 µM | TGI [46]: 4.13 µM | TGI [47]: 1.16 µM | TGI [48]: 0.339 µM | TGI [49]: 9.91 µM | TGI [50]: 7.57 µM | TGI [51]: 3.27 µM | TGI [52]: 4.03 µM | TGI [53]: 4.4 µM

COc1ccc(S(=O)(=O)Nc2ccc(-c3csc(N4C(=O)/C(=C/c5cccs5)N=C4c4ccccc4)n3)cc2)cc1Cl
TGI [1]: > 100 µM | TGI [2]: 65.2 µM | TGI [3]: > 100 µM | TGI [54]: > 100 µM | TGI [4]: > 100 µM | TGI [6]: > 100 µM | TGI [7]: > 100 µM | TGI [8]: > 100 µM | TGI [9]: > 100 µM | TGI [10]: 70.6 µM | TGI [11]: 87.4 µM | TGI [12]: 45.8 µM | TGI [13]: 72 µM | TGI [14]: 93.3 µM | TGI [15]: > 100 µM | TGI [16]: > 100 µM | TGI [17]: > 100 µM | TGI [18]: > 100 µM | TGI [19]: > 100 µM | TGI [20]: > 100 µM | TGI [21]: 90.5 µM | TGI [22]: > 100 µM | TGI [23]: > 100 µM | TGI [24]: > 100 µM | TGI [25]: > 100 µM | TGI [26]: > 100 µM | TGI [27]: > 100 µM | TGI [28]: 59.6 µM | TGI [29]: > 100 µM | TGI [30]: 62.8 µM | TGI [31]: > 100 µM | TGI [55]: > 100 µM | TGI [32]: > 100 µM | TGI [33]: > 100 µM | TGI [34]: > 100 µM | TGI [35]: > 100 µM | TGI [37]: > 100 µM | TGI [38]: > 100 µM | TGI [39]: > 100 µM | TGI [40]: > 100 µM | TGI [41]: > 100 µM | TGI [42]: > 100 µM | TGI [56]: > 100 µM | TGI [43]: > 100 µM | TGI [44]: > 100 µM | TGI [45]: > 100 µM | TGI [46]: > 100 µM | TGI [47]: > 100 µM | TGI [48]: > 100 µM | TGI [49]: 85 µM | TGI [50]: > 100 µM | TGI [57]: > 100 µM | TGI [51]: > 100 µM | TGI [52]: > 100 µM | TGI [53]: 86.3 µM

O=C1CCC(N2C(=O)c3cccc(NCCOCCOCCNC(=O)c4cc5c(o4)C(=O)c4ccccc4C5=O)c3C2=O)C(=O)N1 (centres undefined)
GI50 [1]: 3.14 µM | TGI [1]: 10.9 µM | GI50 [2]: 1.66 µM | TGI [2]: 3.12 µM | GI50 [3]: 2.18 µM | TGI [3]: 4.91 µM | GI50 [54]: 2.3 µM | TGI [54]: 6.62 µM | GI50 [58]: 1.47 µM | TGI [58]: 2.84 µM | GI50 [4]: 2.91 µM | TGI [4]: 10.1 µM | GI50 [5]: 3.45 µM | TGI [5]: 28.9 µM | GI50 [6]: 1.98 µM | TGI [6]: 3.94 µM | GI50 [7]: 1.82 µM | TGI [7]: 3.25 µM | GI50 [59]: 2.62 µM | TGI [59]: 8.39 µM | GI50 [8]: 1.89 µM | TGI [8]: 3.57 µM | GI50 [9]: 2.32 µM | TGI [9]: 6.9 µM | GI50 [10]: 4.08 µM | TGI [10]: 19.2 µM | GI50 [11]: 2.1 µM | TGI [11]: 6.82 µM | GI50 [12]: 1.84 µM | TGI [12]: 3.3 µM | GI50 [13]: 3.27 µM | TGI [13]: 12.5 µM | GI50 [14]: 2.4 µM | TGI [14]: 7.76 µM | GI50 [15]: 3.35 µM | TGI [15]: > 100 µM | GI50 [16]: 1.87 µM | TGI [16]: 4.29 µM | GI50 [17]: 2.55 µM | TGI [17]: 12.7 µM | GI50 [18]: 3.19 µM | TGI [18]: 10.9 µM | GI50 [19]: 1.1 µM | TGI [19]: 2.5 µM | GI50 [20]: 1.2 µM | TGI [20]: 2.6 µM | GI50 [21]: 0.184 µM | TGI [21]: 0.448 µM | GI50 [22]: 1.35 µM | TGI [22]: 3.54 µM | GI50 [23]: 2.29 µM | TGI [23]: 7.31 µM | GI50 [24]: 1.23 µM | TGI [24]: 2.63 µM | GI50 [26]: 2.73 µM | TGI [26]: 7.11 µM | GI50 [27]: 1.7 µM | TGI [27]: 3.8 µM | GI50 [28]: 0.352 µM | TGI [28]: 1.71 µM | GI50 [29]: 1.97 µM | TGI [29]: 3.87 µM | GI50 [30]: 1.71 µM | TGI [30]: 4.38 µM | GI50 [31]: 17.1 µM | TGI [31]: 62.1 µM | GI50 [55]: 0.295 µM | TGI [55]: 1.03 µM | GI50 [32]: 1.29 µM | TGI [32]: 2.57 µM | GI50 [33]: 1.67 µM | TGI [33]: 3.07 µM | GI50 [34]: 2.04 µM | TGI [34]: 10.5 µM | GI50 [35]: 2.42 µM | TGI [35]: 15.1 µM | GI50 [36]: 2.43 µM | TGI [36]: 7.85 µM | GI50 [37]: 1.67 µM | TGI [37]: 3.21 µM | GI50 [38]: 2.18 µM | TGI [38]: 5.72 µM | GI50 [39]: 1.68 µM | TGI [39]: 3.08 µM | GI50 [40]: 1.62 µM | TGI [40]: 2.99 µM | GI50 [41]: 2.36 µM | TGI [41]: 6.46 µM | GI50 [42]: 1.92 µM | TGI [42]: 3.9 µM | GI50 [56]: 0.787 µM | TGI [56]: 2.07 µM | GI50 [43]: 3.09 µM | TGI [43]: 7.78 µM | GI50 [44]: 1.54 µM | TGI [44]: 2.92 µM | GI50 [45]: 1.55 µM | TGI [45]: 3.52 µM | GI50 [46]: 2.47 µM | TGI [46]: 4.16 µM | GI50 [47]: 1.76 µM | TGI [47]: 22.9 µM | GI50 [48]: 1.95 µM | TGI [48]: 4.64 µM | GI50 [49]: 2.46 µM | TGI [49]: 8.05 µM | GI50 [50]: 3.81 µM | TGI [50]: 9.08 µM | GI50 [57]: 1.72 µM | TGI [57]: 3.25 µM | GI50 [51]: 1.48 µM | TGI [51]: 2.85 µM | GI50 [52]: 1.46 µM | TGI [52]: 2.98 µM | GI50 [53]: 3.51 µM | TGI [53]: 12.6 µM
